Test results published in patent US11141410B2 (MERCK SHARP & DOHME CORP., priority 2015, dated 2021).

Experiments:
MRSA COL (MB5393) [1] = assay: TarO Inhibitor/β-Lactam Synergy Assay (growth, OD600); assay type: cell-based, Staphylococcus aureus; conditions: for MITC95 TarO inhibitor + 4 μg/mL IPM; Bacteria: SA_MB5393: in combination with 4 μg/mL imipenem (IPM); for MITC95 TarO inhibitor + 8 μg/mL DCX; Bacteria: SA_MB5393: in combination with 8 μg/mL dicloxacillin (DCX)
Protocol: The TarO inhibitor/β-lactam synergy assay was performed to measure the re-sensitization of methicillin-resistant Staphylococci bacteria (MB5393: MRSA COL) to β-lactam antibiotics by TarO inhibitors. MRSA COL is a hospital-acquired penicillinase-negative clinically isolated strain commonly used in Staphylococcus aureus studies and is fully resistant to the antimicrobial bioactivity of β-lactam antibiotics, including but not limited to imipenem and dicloxacillin. […] MRSA COL is fully refractory to β-lactam antibiotic effect at the current clinical breakpoint concentrations and as such MRSA COL is fully viable at these concentrations.
The β-lactam antibiotic concentration was fixed at the clinical breakpoint (imipenem 4 μg/ml or dicloxacillin 8 μg/ml) and the TarO inhibitors were titrated by 2 fold starting from the highest concentration of 200 μM with final DMSO concentration of 2% in the assay. 5×10^5 colony forming unit of MRSA COL in cation-adjusted Mueller Hinton broth (CAMHB) was then mixed and the assay plate was incubated for 20 hours at 37° C. without shaking. After 20 hours, the optical density at 600 nm (OD600) was read for all wells to determine relative growth of MRSA COL.

MRSA COL (MB5393) [2] = assay: as above; assay type: cell-based; conditions: Staphylococcus aureus, TarO inhibitor alone, >200 μM = 95% growth inhibition not achieved, 20 hours at 37° C., read-out: MITC95 TarO inhibitor alone, Bacteria: SA_MB5393

Structure (SMILES)	MITC95 TarO inhibitor + 4 μg/mL IPM; Bacteria: SA_MB5393 (MRSA COL (MB5393) [1])	MITC95 TarO inhibitor + 8 μg/mL DCX; Bacteria: SA_MB5393 (MRSA COL (MB5393) [1])	IC95 (MRSA COL (MB5393) [2])
C[C@H]1[C@@H](c2cc(F)cc(C(F)(F)F)c2)OC(=O)N1C(=O)NCc1cccc2c1OCCO2 [Example 11, (4S,5R)-N-(2,3-dihydro-1,4-benzodioxin-5-ylmethyl)-5-[3-fluoro-5-(trifluoromethyl)phenyl]-4-methyl-2-oxo-1,3-oxazolidine-3-carboxamide]	0.13 µM	1.42 µM	> 200 µM
Cc1cccnc1CCNC(=O)N1C(=O)O[C@H](c2cc(C(F)(F)F)cc(C(F)(F)F)c2)[C@@H]1C [Example 41, (4S,5R)-5-[3,5-bis(trifluoromethyl)phenyl]-4-methyl-N-[2-(3-methylpyridin-2-yl)ethyl]-2-oxo-1,3-oxazolidine-3-carboxamide]	1.56 µM	16.67 µM	> 200 µM
C[C@H]1[C@@H](c2cc(C(F)(F)F)cc(C(F)(F)F)c2)OC(=O)N1C(=O)COc1cccc2ccccc12 [Example 91, (4S,5R)-5-[3,5-bis(trifluoro-methyl)phenyl]-4-methyl-3-[(naphthalen-1-yloxy)acetyl]-1,3-oxazolidin-2-one]	0.76 µM	4.69 µM	> 200 µM
C[C@H]1[C@@H](c2cc(F)cc(C(F)(F)F)c2)OC(=O)N1C(=O)NCc1cccc2cc[nH]c12 [Example 12, (4S,5R)-5-[3-fluoro-5-(trifluoromethyl)phenyl]-N-(1H-indol-7-ylmethyl)-4-methyl-2-oxo-1,3-oxazolidine-3-carboxamide]	0.25 µM	1.56 µM	> 200 µM
COc1cccnc1CNC(=O)N1C(=O)O[C@H](c2cc(C(F)(F)F)cc(C(F)(F)F)c2)[C@@H]1C [Example 38, (4S,5R)-5-[3,5-bis(trifluoromethyl)phenyl]-N-[(3-methoxypyridin-2-yl)methyl]-4-methyl-2-oxo-1,3-oxazolidine-3-carboxamide]	1.56 µM	25 µM	> 200 µM
C[C@H]1[C@@H](c2cc(F)cc(C(F)(F)F)c2)OC(=O)N1C(=O)NCc1cncc2ccccc12 [Example 48, (4S,5R)-5-[3-fluoro-5-(trifluoromethyl)phenyl]-N-(isoquinolin-4-ylmethyl)-4-methyl-2-oxo-1,3-oxazolidine-3-carboxamide]	0.13 µM	0.39 µM	> 200 µM
C[C@H]1[C@@H](c2cccc(OC(F)(F)F)c2)OC(=O)N1C(=O)CCc1cncc2ccccc12 [Example 72, (4S,5R)-3-(3-isoquinolin-4-ylpropanoyl)-4-methyl-5-[3-(trifluoromethoxy)phenyl]-1,3-oxazolidin-2-one]	0.21 µM	1.56 µM	> 200 µM
O=C(NCc1cncc2ccccc12)N1C(=O)O[C@H](c2cc(F)cc(C(F)(F)F)c2)[C@@H]1CCO [Example 99, (4S,5R)-5-(3-fluoro-5-(trifluoromethyl)phenyl)-4-(2-hydroxyethyl)-N-(isoquinolin-4-ylmethyl)-2-oxooxazolidine-3-carboxamide]	18.75 µM	100 µM	> 200 µM
COc1cc([C@H]2OC(=O)N(C(=O)NCc3cccc4cncnc34)[C@H]2CO)cc(C(F)(F)F)c1 [Example 59, (4S,5R)-4-(hydroxymethyl)-5-[3-methoxy-5-(trifluoromethyl)phenyl]-2-oxo-N-(quinazolin-8-ylmethyl)-1,3-oxazolidine-3-carboxamide]	1.95 µM	10.42 µM	> 200 µM
C[C@H]1[C@@H](c2cc(C(F)(F)F)cc(C(F)(F)F)c2)OC(=O)N1C(=O)CCc1cccc2sccc12 [Example 68, (4S,5R)-3-[3-(1-benzothiophen-4-yl)propanoyl]-5-[3,5-bis(trifluoromethyl)phenyl]-4-methyl-1,3-oxazolidin-2-one]	0.01 µM	0.20 µM	> 200 µM
C[C@H]1[C@@H](c2cc(C(F)(F)F)ccn2)OC(=O)N1C(=O)CCc1cncc2ccccc12 [Example 89, (4S,5S)-3-(3-(isoquinolin-4-yl)propanoyl)-4-methyl-5-(4-(trifluoromethyl)pyridin-2-yl)oxazolidin-2-one]	6.25 µM	75 µM	> 200 µM
